Reference: patent US9464084B2, “P2X7 modulators” (Janssen Pharmaceutica NV, priority 2013, dated 2016)

The compounds below were run against P2X7 (Homo sapiens (Human), UniProt Q99572) (assay: P2X7 antagonism in human PBMCs (LPS + Bz-ATP induced IL-1β release, ELISA)). Details: compound 1 μM, LPS 30 ng/ml, Bz-ATP 0.5 mM.
Type: cell-based
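Further: PBMCs from donor human blood, with a further 1.5 h incubation of the cells in the assay.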

Chain of P2X7 (Q99572 whole entry): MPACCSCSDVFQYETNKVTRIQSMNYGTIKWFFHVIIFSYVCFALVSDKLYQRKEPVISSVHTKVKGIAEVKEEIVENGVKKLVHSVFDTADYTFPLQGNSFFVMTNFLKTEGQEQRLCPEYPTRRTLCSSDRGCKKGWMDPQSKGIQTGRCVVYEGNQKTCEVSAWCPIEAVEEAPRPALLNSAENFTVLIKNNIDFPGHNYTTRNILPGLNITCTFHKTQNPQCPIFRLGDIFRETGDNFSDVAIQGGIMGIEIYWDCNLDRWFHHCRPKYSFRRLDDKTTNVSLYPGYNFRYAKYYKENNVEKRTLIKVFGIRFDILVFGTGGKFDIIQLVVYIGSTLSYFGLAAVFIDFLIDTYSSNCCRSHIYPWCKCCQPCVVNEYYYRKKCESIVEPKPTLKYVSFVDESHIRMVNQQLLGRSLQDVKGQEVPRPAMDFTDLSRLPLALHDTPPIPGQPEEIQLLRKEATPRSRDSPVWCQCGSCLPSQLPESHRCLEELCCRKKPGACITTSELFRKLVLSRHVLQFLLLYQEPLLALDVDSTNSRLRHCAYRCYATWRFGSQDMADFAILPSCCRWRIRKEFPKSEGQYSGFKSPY

| Compound | PBMC 1 μM (% control) |
| --- | --- |
| CC1c2nnn(-c3cnccn3)c2CCN1C(=O)c1cccc(C(F)(F)F)c1Cl (stereo not drawn) [Example 73, 5-{[2-Chloro-3-(trifluoromethyl)phenyl]carbonyl}-4-methyl-1-pyrazin-2-yl-4,5,6,7-tetrahydro-1H-[1,2,3]triazolo[4,5-c]pyridine] | 4.3 |
| CC1c2ncn(-c3ccc(F)cc3)c2CCN1C(=O)c1cccc(C(F)(F)F)c1Cl (stereo not drawn) [Example 18, (2-Chloro-3-(trifluoromethyl)phenyl)(1-(4-fluorophenyl)-4-methyl-6,7-dihydro-1H-imidazo[4,5-c]pyridin-5(4H)-yl)methanone] | 5.3 |
| O=C(c1c(F)cccc1Cl)N1CCc2c(-c3ccccc3)n[nH]c2C1 [Example 325, (2-chloro-6-fluorophenyl)(3-phenyl-4,5-dihydro-1H-pyrazolo[3,4-c]pyridin-6(7H)-yl)methanone] | 99.7 |
| O=C(c1cccc(C(F)(F)F)c1Cl)N1CCc2ncn(-c3cnccn3)c2C1 [Example 10, (2-Chloro-3-(trifluoromethyl)phenyl)(3-(pyrazin-2-yl)-6,7-dihydro-3H-imidazo[4,5-c]pyridin-5(4H)-yl)methanone] | 76.5 |
| O=C(c1cccc(C(F)(F)F)c1Cl)N1CCc2nc[nH]c2C1 [Example 48, 5-{[2-Chloro-3-(trifluoromethyl)phenyl]carbonyl}-4,5,6,7-tetrahydro-3H-imidazo[4,5-c]pyridine] | 90.1 |

Same assay, conditions: compound 10 μM, LPS 30 ng/ml, Bz-ATP 0.5 mM

| Compound | PBMC 10 μM (% control) |
| --- | --- |
| CC1Cc2c(nnn2-c2ncc(F)cn2)CN1C(=O)c1ccc(F)c(Cl)c1Cl (stereo not drawn) [Example 213, 5-[(2,3-Dichloro-4-fluorophenyl)carbonyl]-1-(5-fluoropyrimidin-2-yl)-6-methyl-4,5,6,7-tetrahydro-1H-[1,2,3]triazolo[4,5-c]pyridine] | 0.3 |
| C[C@@H]1c2nnn(-c3cc(F)ccn3)c2CCN1C(=O)c1cccc(C(F)(F)F)c1Cl (single isomer, unassigned) [Example 148, (R*)-(2-Chloro-3-(trifluoromethyl)phenyl)(1-(4-fluoropyridin-2-yl)-4-methyl-6,7-dihydro-1H-[1,2,3]triazolo[4,5-c]pyridin-5(4H)-yl)methanone] | −9.6 |
| C[C@@H]1Cc2c(nnn2-c2ccn[nH]2)[C@H](C)N1C(=O)c1cccc(C(F)(F)F)c1Cl [Example 297, (2-chloro-3-(trifluoromethyl)phenyl)((4S,6R)-4,6-dimethyl-1-(1H-pyrazol-5-yl)-6,7-dihydro-1H-[1,2,3]triazolo[4,5-c]pyridin-5(4H)-yl)methanone] | 2.6 |
| CC1c2ncn(-c3ccc(F)cn3)c2CCN1C(=O)c1ccc(C(C)(C)C)cc1 (stereo not drawn) [Example 265, (4-(tert-butyl)phenyl)(1-(5-fluoropyridin-2-yl)-4-methyl-6,7-dihydro-1H-imidazo[4,5-c]pyridin-5(4H)-yl)methanone] | 76.5 |
| CC1c2ncn(-c3ncc(F)cn3)c2CCN1C(=O)c1cccc(C(F)(F)F)c1Cl (stereo not drawn) [Example 22, (2-Chloro-3-(trifluoromethyl)phenyl)(1-(5-fluoropyrimidin-2-yl)-4-methyl-6,7-dihydro-1H-imidazo[4,5-c]pyridin-5(4H)-yl)methanone] | −15.9 |
| Cc1c(C(=O)N2Cc3nnn(-c4ncc(F)cn4)c3C[C@H]2C)ccnc1C(F)(F)F (single isomer, unassigned) [Example 187, (S*)-(1-(5-fluoropyrimidin-2-yl)-6-methyl-6,7-dihydro-1H-[1,2,3]triazolo[4,5-c]pyridin-5(4H)-yl)(3-methyl-2-(trifluoromethyl)pyridin-4-yl)methanone] | −0.6 |
| C[C@H]1c2ncn(-c3ccccn3)c2CCN1C(=O)c1cccc(C(F)(F)F)c1F (single isomer, unassigned) [Example 43, (4 S*)-5-{[2-Fluoro-3-(trifluoromethyl)phenyl]carbonyl}-4-methyl-1-pyridin-2-yl-4,5,6,7-tetrahydro-1H-imidazo[4,5-c]pyridine] | 77.8 |
| C[C@H]1c2nnn(-c3ncccn3)c2CCN1C(=O)c1cccc(C(F)(F)F)c1F (single isomer, unassigned) [Example 270, (S*)-(2-fluoro-3-(trifluoromethyl)phenyl)(4-methyl-1-(pyrimidin-2-yl)-6,7-dihydro-1H-[1,2,3]triazolo[4,5-c]pyridin-5(4H)-yl)methanone] | 98.5 |
| CC1Cc2c(nnn2-c2ncc(F)cn2)CN1C(=O)c1cccc(C(F)(F)F)c1Cl (stereo not drawn) [Example 200, 5-{[2-Chloro-3-(trifluoromethyl)phenyl]carbonyl}-1-(5-fluoropyrimidin-2-yl)-6-methyl-4,5,6,7-tetrahydro-1H-[1,2,3]triazolo[4,5-c]pyridine] | 3.2 |
| Cc1c(C(=O)N2Cc3nnn(-c4ncc(F)cn4)c3C[C@@H]2C)cccc1C(F)(F)F (single isomer, unassigned) [Example 208, (6S*)-1-(5-Fluoropyrimidin-2-yl)-6-methyl-5-{[2-methyl-3-(trifluoromethyl)phenyl]carbonyl}-4,5,6,7-tetrahydro-1H-[1,2,3]triazolo[4,5-c]pyridine] | 20.9 |
| CC1c2ncn(-c3ccccn3)c2CCN1C(=O)c1cccc(C(F)(F)F)c1F (stereo not drawn) [Example 19, (2-Fluoro-3-(trifluoromethyl)phenyl)(4-methyl-1-(pyridin-2-yl)-6,7-dihydro-1H-imidazo[4,5-c]pyridin-5(4H)-yl)methanone] | 11.6 |
| C[C@@H]1Cc2c(nnn2-c2ncc(F)cn2)CN1C(=O)c1cccc(Cl)c1Cl (single isomer, unassigned) [Example 204, (6R*)-5-[(2,3-Dichlorophenyl)carbonyl]-1-(5-fluoropyrimidin-2-yl)-6-methyl-4,5,6,7-tetrahydro-1H-[1,2,3]triazolo[4,5-c]pyridine] | 180.6 |
| C[C@H]1Cc2c(nnn2-c2ncc(F)cn2)CN1C(=O)c1cccc(C(F)(F)F)c1Cl (single isomer, unassigned) [Example 202, (6S*)-5-{[2-Chloro-3-(trifluoromethyl)phenyl]carbonyl}-1-(5-fluoropyrimidin-2-yl)-6-methyl-4,5,6,7-tetrahydro-1H-[1,2,3]triazolo[4,5-c]pyridine] | 24.1 |
| C[C@@H]1Cc2c(nnn2-c2ncccc2F)CN1C(=O)c1cccc(C(F)(F)F)c1Cl (single isomer, unassigned) [Example 167, (6R*)-5-{[2-Chloro-3-(trifluoromethyl)phenyl]carbonyl}-1-(3-fluoropyridin-2-yl)-6-methyl-4,5,6,7-tetrahydro-1H-[1,2,3]triazolo[4,5-c]pyridine] | 4.2 |
| C[C@H]1Cc2c(nnn2-c2ccccc2)CN1C(=O)c1cccc(C(F)(F)F)c1Cl [Example 288, (S)-(2-chloro-3-(trifluoromethyl)phenyl)(6-methyl-1-phenyl-6,7-dihydro-1H-[1,2,3]triazolo[4,5-c]pyridin-5(4H)-yl)methanone] | 4.4 |
| C[C@H]1Cc2c(nnn2-c2ncccc2F)CN1C(=O)c1cccc(Cl)c1Cl (single isomer, unassigned) [Example 166, (6S*)-5-[(2,3-Dichlorophenyl)carbonyl]-1-(3-fluoropyridin-2-yl)-6-methyl-4,5,6,7-tetrahydro-1H-[1,2,3]triazolo[4,5-c]pyridine] | 0.6 |
| C[C@@H]1c2nnn(-c3ccc(F)cc3)c2C[C@H](C)N1C(=O)c1cccc(C(F)(F)F)c1Cl [Example 287, (2-chloro-3-(trifluoromethyl)phenyl)((4R,6S)-1-(4-fluorophenyl)-4,6-dimethyl-6,7-dihydro-1H-[1,2,3]triazolo[4,5-c]pyridin-5(4H)-yl)methanone] | −4.1 |
| Cc1cccnc1-n1nnc2c1CCN(C(=O)c1cccc(C(F)(F)F)c1Cl)C2C (stereo not drawn) [Example 259, (2-Chloro-3-(trifluoromethyl)phenyl)(4-methyl-1-(3-methylpyridin-2-yl)-6,7-dihydro-1H-[1,2,3]triazolo[4,5-c]pyridin-5(4H)-yl)methanone] | −3.5 |
| C[C@@H]1Cc2c(nnn2-c2cnccn2)CN1C(=O)c1cccc(C(F)(F)F)c1Cl (single isomer, unassigned) [Example 211, (6R*)-5-{[2-Chloro-3-(trifluoromethyl)phenyl]carbonyl}-6-methyl-1-pyrazin-2-yl-4,5,6,7-tetrahydro-1H-[1,2,3]triazolo[4,5-c]pyridine] | 28.5 |
| C[C@@H]1Cc2c(nnn2-c2ccn[nH]2)[C@@H](C)N1C(=O)c1cccc(C(F)(F)F)c1Cl [Example 320, (2-chloro-3-(trifluoromethyl)phenyl)((4R,6R)-4,6-dimethyl-1-(1H-pyrazol-5-yl)-6,7-dihydro-1H-[1,2,3]triazolo[4,5-c]pyridin-5(4H)-yl)methanone] | −19.7 |
| Cc1c(C(=O)N2Cc3nnn(-c4ncc(F)cn4)c3CC2C)cccc1C(F)(F)F (stereo not drawn) [Example 206, 1-(5-Fluoropyrimidin-2-yl)-6-methyl-5-{[2-methyl-3-(trifluoromethyl)phenyl]carbonyl}-4,5,6,7-tetrahydro-1H-[1,2,3]triazolo[4,5-c]pyridine] | −1.0 |
| CC1c2nnn(-c3cc[nH]n3)c2CCN1C(=O)c1cccc(C(F)(F)F)c1Cl (stereo not drawn) [Example 85, 5-{[2-Chloro-3-(trifluoromethyl)phenyl]carbonyl}-4-methyl-1-(1H-pyrazol-3-yl)-4,5,6,7-tetrahydro-1H-[1,2,3]triazolo[4,5-c]pyridine] | 24.7 |
